According to patent US7807162B2, “Single domain VHH antibodies against von Willebrand factor” (Ablynx N.V., priority 2005, dated 2010):
Where “and” joins values, the source holds several entries; their conditions need not be identical. Equal values may be shown once.

Key:
[1] = tested on: cyclic flow reductions (CFRs) in injured, stenosed femoral artery; experiment: Folts thrombosis model in baboons: length/inhibition of cyclic flow reductions (CFRs); type: in vivo, baboon (Papio ursinus); settings: for Length of CFRs: individual baboons 16-24; for effective dose: Folts model
[2] = tested on: cyclic flow reductions (CFRs) in injured, stenosed femoral artery; experiment: Folts model in baboons: Aspegic-Heparin-Plavix combination with ALX-0081 on top; type: in vivo, baboon (Papio ursinus)
Experimental: Extra Heparin was administered at different time points to sustain a certain level (aPTT should be at least doubled versus control). […] The anti-thrombotic effect was quantified by comparing the length of CFRs before and after drug administration. When full inhibition of CFRs was observed, a new injury was applied. Epinephrin was injected and continued till the end of the experiment. […] (1), 3, 10 or 30 μg/kg. […] The specifications of the baboons that were used in this study are represented in table 49.

[3] = tested on: cyclic flow reductions (CFRs) in injured, stenosed femoral artery; experiment: Use of vWF as an antidote for ALX-0081 in the baboon Folts model; type: in vivo, baboon (Papio ursinus)
Text: The experimental procedure followed the original Folts model with the modifications as described in the previous example 18.
Healthy male baboons (Papio ursinus) were used in this study. The animals were 9-12 kg of weight and were disease-free for at least 2 weeks prior to use. The baboons were fed with dry standard food only.

ADAMTS-13 [4] = experiment: Cleavage of ULvWF platelet strings by ADAMTS-13 (perfusion assay); type: cell-based, human
Experimental: ADAMTS-13 reduces the size of large and ultralarge VWF multimers to smaller forms by specifically cleaving the Y842/M843 peptide bond in the VWF A2 domain.
In a first experiment, strings were generated by a 4 minute perfusion of washed platelets resuspended in buffer over histamine-stimulated endothelial cells. Subsequently, the non-adhered platelets were washed away by a 4 minute perfusion of buffer. After that, buffer was perfused for an other 4 minutes, followed by a 4 minute perfusion of pooled normal plasma containing ADAMTS-13. Detachment of the platelet strings was observed after perfusion of pooled normal plasma (FIG. 43). More than 95% of the strings were cleaved after the 4 minute perfusion.
In a next experiment, strings were generated by a 4 minute perfusion of washed platelets resuspended in buffer over histamine-stimulated endothelial cells and the non-adhered platelets were washed away by a 4 minute perfusion of buffer as above.

ADAMTS-13 [5] = experiment: Cleavage of recombinant A1-A2-A3 vWF fragment by ADAMTS-13 (Western Blot); type: biochemical, human; settings: 10 μg/ml; normal pool plasma
Experimental: In a second type of experiment, different reaction mixtures were prepared as summarized in table 60, however, without the addition of the A1A2A3 construct. The A1A2A3 construct is a recombinant fragment consisting out of the A1, A2 and A3 domain of vWF. Mixtures were pre-incubated for 5 minutes at 37° C. after which the A1A2A3 fragment is added and the mixture is incubated in a waterbath overnight at 37° C. […] The blot was blocked for 2 hours at room temperature with blockbuffer (1:1 Odyssey blockbuffer in 1×TBS pH=7.4) and incubated with Rabbit polyclonal anti-vWF (DAKO). Alexa Fluor 680 goat anti-rabbit was used for detection. Scanning was done on the ODYSSEY to detect the degradation products.
In a second assay, a recombinant fragment containing the A1-A2-A3 domain of vWF was mixed with normal pool plasma (NPP) containing ADAMTS-13, resulting in proteolytic cleavage of the fragment which was observed by a Western Blot analysis.

[6] = tested on: ristocetin-induced platelet aggregation; experiment: Ristocetin-induced platelet aggregation (RIPA) ex vivo in blood of treated baboons
Experimental: Platelet aggregations were performed on a Chronolog whole blood and optical Aggregometer (Model 560CA, Chronolog, USA). PRP was prepared (collected on 0.38 mol/L citrate), by centrifuging the whole blood at 1200 rpm for 5 minutes. The upper fraction containing the PRP was carefully removed. The lower fraction was further centrifuged at 3000 rpm for 10 minutes to prepare platelet poor plasma (PPP). Platelets were counted in PRP and diluted in PPP to a final concentration of 200.000 platelets per microliter. 3 mg/ml ristocetin (DAKO) was added and aggregation was measured.
The GPIb-IX-V dependent platelet aggregation through vWF is measured using ristocetin as a modulator. The % aggregation is measured at each time point and at each dose.

[7] = number of experiments with inhibition / total number of independent repeats

With “ALX-0081: ALX-0081 (SEQ ID NO:98), Nanobody; humanised bivalent nanobody with the 3a linker” the “Length of CFRs” value ([1]; ALX-0081-treated, after Epinephrin) was >1200 s (2×) and >900 s (7×), the “Length of CFRs” value ([1]; ALX-0081 final dose 3 μg/kg) was 295 s and 193 s and 144 s and 133 s and 183 s and 312 s and 112 s and the “Length of CFRs” value ([1]; ALX-0081 final dose 13 μg/kg) was 380 s and 913 s and >1800 s (2×) and 298 s and 237 s and 620 s and 525 s and 213 s. For the same substance, the “Length of CFRs” value ([1]; ALX-0081 final dose 43 μg/kg) was greater than 1800 s, the “Length of CFRs” value ([1]; ALX-0081 final dose 133 μg/kg) was greater than 1800 s and the effective dose [1] was 30 µg/kg. For the same substance, the effective dose ([1]; inhibition of CFRs, final dose, ALX-0081: + […] dose/kg/hour) was 13-43 μg/kg +, the “final dose at which full inhibition of CFRs was obtained” value ([1]; all baboons (nine)) was 0.043 mg/kg and the “dose at which full inhibition of CFRs was obtained” value ([1]; all baboons (nine), bolus followed by 45 μg/kg/hour infusion) was 0.03 mg/kg. The “dose at which full inhibition of CFRs was already obtained” value ([1]; baboons 17 and 22, bolus followed by 15 μg/kg/hour infusion) was 0.01 mg/kg, the “CFRs upon a new injury” value ([1]; new injury applied at full inhibition of CFRs) was “Inhibition was retained” and the “Inhibition of CFRs” value [1, 7] was 9/9. The “Inhibition of CFRs after administration of Epinephrin” value [1, 7] was 9/9, the “Inhibition of CFRs after new injury” value [1, 7] was 9/9 and the “CFRs upon a new injury” value ([2]; at the effective dose of ALX-0081 on top of the combination) was “the CFRs did not return”. For the same substance, the “dose at which full inhibition of the CFRs was obtained” value ([2]; on top of Aspegic, Heparin, Plavix, continued Epinephrin infusion, all seven baboons) was 0.03 mg/kg, the “Length of CFRs” value ([2]; on top of Aspegic/Heparin/Plavix combination: Epinephrin + effective dose ALX-0081, individual baboons 4-10) was greater than 1800 s and the “Length of CFRs” value ([3]; 30 μg/kg + 45 μg/kg/hour ALX-0081, baboons 1-3) was greater than 1800 s. For the same substance, the “dose at which full inhibition of CFRs was obtained” value ([3]; all three baboons, bolus followed by 45 μg/kg/hour) was 0.03 mg/kg, the “CFRs upon a new injury” value ([3]; at 30 μg/kg+45 μg/kg/hour ALX-0081) was “the CFRs did not return” and the “effect on the cleavage of ULvWF strings by ADAMTS-13” value (ADAMTS-13 [4]; ALX-0081 10 μg/ml) was “does not have an effect”. For the same substance, the “strings cleaved after the 4 minute perfusion of pooled normal plasma” value (ADAMTS-13 [4]; ALX-0081 10 μg/ml (10-fold molar excess over vWF)) was 95%, the “effect on the cleavage of the A1-A2-A3 vWF fragment by ADAMTS-13” value (ADAMTS-13 [5]) was “no effect” and the “relation between RIPA and the length of the CFRs” value ([6]; 3 mg/ml ristocetin) was “inverse relation”. The “dose for full inhibition in RIPA versus full inhibition of CFRs” value ([6]; baboons 16, 18, 19 and 23) was “full inhibition in the RIPA test is obtained at lower doses than full inhibition of CFRs”.
